Some test systems named below: ACHN; DU-145; HCC 2998; KM12; M14; MCF7; MDA-MB-435; NCI-H226; NCI-H23; OVCAR-3; SF-268; SF-295; SF-539; SK-MEL-28; SN12C; SNB-75; SR; UACC-257; UO-31.
Holding throughout (experiment): NCI anticancer screen, dose series, 48 h

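Test compounds were applied to cells in 96-well plates for 48 hours at 5 doses. GI50: concentration for 50% inhibition of growth.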 Active and inactive are the calls of the source. Rule as the data show it: active = GI50 up to about 1.1 µM and inactive = higher.

In the case of `COc1cccc2c(=O)c3c(n(C)c12)OC(C(C)C)C3` (centres undefined), the GI50 in the assay with ACHN is 63 µM (inactive); in the assay with DU-145, > 100 µM (inactive); with HCC 2998 it was > 100 µM (inactive); in the assay on KM12, 99.5 µM (inactive); with M14, > 100 µM (inactive); with MCF7, > 100 µM (inactive). Further, the GI50 in the assay on MDA-MB-435 was > 100 µM (inactive); in the assay on NCI-H226 it was 83.2 µM (inactive); in the assay with NCI-H23, > 100 µM (inactive); in the assay on OVCAR-3, > 100 µM (inactive); with SF-268, > 100 µM (inactive); in the assay with SF-295, > 100 µM (inactive). Further, the GI50 in the assay with SF-539 was > 100 µM (inactive); with SK-MEL-28 it was > 100 µM (inactive); with SN12C, > 100 µM (inactive); with SNB-75, > 100 µM (inactive); in the assay with SR, 30.8 µM (inactive); in the assay with UACC-257 it was > 100 µM (inactive). In the assay on UO-31, the GI50 was 40.7 µM (inactive).
For `NC(=S)N/N=C/C1NCCC2CCCCC21` (centres undefined), the GI50 in the assay on ACHN was 0.0134 µM (active); in the assay on DU-145 it was 0.173 µM (active); in the assay on HCC 2998, 0.108 µM (active); in the assay on KM12, 0.416 µM (active); in the assay on M14, 0.17 µM (active); in the assay on MCF7, 0.59 µM (active). Also, the GI50 with MDA-MB-435 is 0.414 µM (active); with NCI-H226, 0.314 µM (active); in the assay with NCI-H23 it was 0.133 µM (active); with OVCAR-3, 0.312 µM (active); in the assay with SF-268, 0.313 µM (active); in the assay with SF-295 it was 0.0673 µM (active). Besides, the GI50 with SF-539 is 0.0272 µM (active); with SK-MEL-28, 2.38 µM (inactive); in the assay with SN12C, 0.167 µM (active); in the assay on SNB-75 it was 24.2 µM (inactive); in the assay with SR, 0.137 µM (active); in the assay with UACC-257, 0.601 µM (active). Further, the GI50 with UO-31 was 0.34 µM (active).
For the compound `CC1=NN(c2cccc(S(=O)(=O)O)c2)C2(C1)SCC(=O)N2c1nc2ccccc2s1` (centres undefined), the GI50 in the assay with ACHN, with DU-145, in the assay on HCC 2998, in the assay with KM12, in the assay with M14 and with MCF7 was > 100 µM (inactive) in each case. Also, the GI50 was > 100 µM (inactive) in the assay with MDA-MB-435; > 100 µM (inactive) in the assay with NCI-H226; > 100 µM (inactive) in the assay with NCI-H23; 83.2 µM (inactive) with OVCAR-3; > 100 µM (inactive) in the assay on SF-268; > 100 µM (inactive) in the assay with SF-295. The GI50 in the assay on SF-539 is 17.6 µM (inactive); in the assay on SK-MEL-28, > 100 µM (inactive); with SN12C, > 100 µM (inactive); in the assay with SNB-75, > 100 µM (inactive); with SR it was 35.7 µM (inactive); with UACC-257, > 100 µM (inactive). Further, in the assay on UO-31, the GI50 is > 100 µM (inactive).
In the case of `Nc1ccccc1-c1noc(=O)[nH]1`, the GI50 with ACHN, in the assay on DU-145, with HCC 2998, in the assay with KM12, in the assay on M14 and in the assay on MCF7 was > 100 µM (inactive) in each case. Further, the GI50 with MDA-MB-435, with NCI-H226, in the assay with NCI-H23, in the assay on OVCAR-3, with SF-268 and in the assay with SF-295 was > 100 µM (inactive) each time. Further, the GI50 in the assay on SF-539, in the assay on SK-MEL-28, in the assay with SN12C, with SNB-75, with SR and in the assay with UACC-257 was > 100 µM (inactive) throughout. Moreover, in the assay on UO-31, the GI50 is > 100 µM (inactive).
For the compound `CC1=C(C#N)C23C(=O)c4ccccc4C(=O)C2=C(O)C=CC3(O)N1` (centres undefined), the GI50 is 1.53 µM (inactive) with ACHN; 2.98 µM (inactive) in the assay with DU-145; 4.02 µM (inactive) with HCC 2998; 9.08 µM (inactive) in the assay on KM12; 2.19 µM (inactive) in the assay with M14; 0.597 µM (active) in the assay on MCF7. The GI50 with MDA-MB-435 was 2.81 µM (inactive); in the assay with NCI-H226 it was 15.7 µM (inactive); in the assay on NCI-H23 it was 3.84 µM (inactive); in the assay on OVCAR-3 it was 0.861 µM (active); in the assay with SF-268 it was 6.61 µM (inactive); in the assay on SF-295, 13.6 µM (inactive). Moreover, the GI50 in the assay on SF-539 is 2.86 µM (inactive); with SK-MEL-28 it was 2.51 µM (inactive); in the assay with SN12C, 2.24 µM (inactive); in the assay on SNB-75, 2.3 µM (inactive); with SR, 0.269 µM (active); in the assay on UACC-257 it was 2.07 µM (inactive). In addition, in the assay with UO-31, the GI50 was 2.37 µM (inactive).
On to `Nc1nc(Cl)c2ncn(Cc3cccc(CCl)c3)c2n1`, for which the GI50 in the assay with ACHN was 3.45 µM (inactive); in the assay on DU-145, 6.03 µM (inactive); with HCC 2998, 3.03 µM (inactive); in the assay on KM12 it was 4.53 µM (inactive); in the assay on M14, 3.66 µM (inactive); with MCF7, 5.35 µM (inactive). Besides, the GI50 in the assay on MDA-MB-435 was 6.73 µM (inactive); in the assay with NCI-H226, 6.28 µM (inactive); in the assay on NCI-H23, 1.87 µM (inactive); in the assay with OVCAR-3 it was 1.33 µM (inactive); in the assay on SF-268, 5.09 µM (inactive); with SF-295 it was 7.01 µM (inactive). The GI50 in the assay with SF-539 is 5.24 µM (inactive); in the assay on SK-MEL-28, 5.28 µM (inactive); in the assay on SN12C it was 8.05 µM (inactive); in the assay with SNB-75, 9.75 µM (inactive); in the assay on SR it was 1.74 µM (inactive); in the assay on UACC-257, 6.01 µM (inactive). In addition, the GI50 in the assay on UO-31 is 13.4 µM (inactive).
As to `COC(=O)[C@@H]1CS(=O)(=O)C(C(C)C)N1C(C)=O` (some centres undefined), the GI50 in the assay with ACHN, in the assay with DU-145, with HCC 2998, in the assay on KM12, with M14 and in the assay with MCF7 was > 100 µM (inactive) each time. For the same compound, the GI50 in the assay with MDA-MB-435, in the assay on NCI-H226, in the assay on NCI-H23, in the assay on OVCAR-3, in the assay on SF-268 and with SF-295 was > 100 µM (inactive) in each case. Further, the GI50 in the assay on SF-539, in the assay on SK-MEL-28, with SN12C, with SNB-75, with SR and in the assay with UACC-257 was > 100 µM (inactive) each time. Further, the GI50 in the assay with UO-31 was > 100 µM (inactive).
As to `CC(=O)OC1c2ccccc2CC2(OC(C)=O)c3ccccc3C12` (centres undefined), the GI50 is > 100 µM (inactive) in the assay on ACHN; > 100 µM (inactive) in the assay on DU-145; > 100 µM (inactive) with HCC 2998; > 100 µM (inactive) in the assay on KM12; > 100 µM (inactive) in the assay on M14; 80.4 µM (inactive) in the assay on MCF7. In addition, the GI50 in the assay on MDA-MB-435, in the assay with NCI-H226, in the assay with NCI-H23, in the assay on OVCAR-3, in the assay with SF-268 and in the assay with SF-295 was > 100 µM (inactive) each time. The GI50 in the assay on SF-539, in the assay on SK-MEL-28, in the assay with SN12C, in the assay on SNB-75, in the assay with SR and with UACC-257 was > 100 µM (inactive) in each case. Besides, the GI50 in the assay with UO-31 is > 100 µM (inactive).
As for `CC(C)(C)OC(=O)c1ccc(NCC2=C(Br)C(=O)C=CC2=O)cc1`, the GI50 in the assay with ACHN is 17.9 µM (inactive); in the assay with DU-145, 35.7 µM (inactive); with HCC 2998, 21.5 µM (inactive); in the assay on KM12, 33.3 µM (inactive); in the assay with M14, 27.5 µM (inactive); in the assay with MCF7 it was 19.3 µM (inactive). Besides, the GI50 was 18.8 µM (inactive) with MDA-MB-435; 22.1 µM (inactive) in the assay on NCI-H226; 19.6 µM (inactive) in the assay on NCI-H23; 10.6 µM (inactive) with OVCAR-3; 19.6 µM (inactive) with SF-268; 65.9 µM (inactive) in the assay on SF-295. Further, the GI50 in the assay on SF-539 was 21.5 µM (inactive); in the assay with SK-MEL-28, 19.6 µM (inactive); in the assay on SN12C, 18.7 µM (inactive); in the assay on SNB-75, 39.5 µM (inactive); with SR it was 11.7 µM (inactive); with UACC-257, 21.7 µM (inactive). In addition, the GI50 with UO-31 was 14 µM (inactive).
With `CC(=O)c1[nH]c(NCc2ccccc2)c(C(=S)Nc2ccccc2)c1N`, the GI50 in the assay with ACHN is 29 µM (inactive); in the assay on DU-145 it was 28.8 µM (inactive); with HCC 2998, 20.5 µM (inactive); in the assay with KM12, 17.9 µM (inactive); with M14, 18.9 µM (inactive); with MCF7 it was 19.3 µM (inactive). Also, the GI50 is 18.2 µM (inactive) with MDA-MB-435; 18.2 µM (inactive) in the assay on NCI-H226; 38.8 µM (inactive) in the assay on NCI-H23; 26.7 µM (inactive) in the assay on OVCAR-3; 21.5 µM (inactive) in the assay with SF-268; 25.6 µM (inactive) in the assay with SF-295. Moreover, the GI50 was 1.88 µM (inactive) with SF-539; 24.2 µM (inactive) in the assay on SK-MEL-28; 22.5 µM (inactive) in the assay on SN12C; > 100 µM (inactive) with SNB-75; 28.7 µM (inactive) in the assay with SR; 24.2 µM (inactive) in the assay on UACC-257. In the assay on UO-31, the GI50 was 0.452 µM (active).
In the case of `Sc1nn2c(COc3ccc(Cl)cc3)nnc2s1`, the GI50 in the assay with ACHN, in the assay on DU-145, with HCC 2998, with KM12, in the assay with M14 and in the assay on MCF7 was > 100 µM (inactive) throughout. The GI50 in the assay on MDA-MB-435, with NCI-H226, with NCI-H23, in the assay with OVCAR-3, with SF-268 and in the assay with SF-295 was > 100 µM (inactive) in each case. For the same compound, the GI50 with SF-539, with SK-MEL-28, with SN12C, in the assay on SNB-75, in the assay on SR and in the assay on UACC-257 was > 100 µM (inactive) throughout. For the same compound, the GI50 in the assay on UO-31 was > 100 µM (inactive).

The record behind these values is ChEMBL document CHEMBL1201862, “PubChem BioAssay data set” (2004).
